Results taken from ChEMBL document CHEMBL1201862, “PubChem BioAssay data set” (2004).
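96-well plates; 48 h exposure; 5 concentrations. Endpoints by linear interpolation between flanking doses. Not reached: highest tested concentration assigned. Here, GI50 denotes the concentration required for 50% inhibition of growth.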 Active and inactive are the calls of the source. No stated cut-off is given here; in the data, active = GI50 up to about 1.1 µM and inactive = higher.

Key:
Test in all cases: inhibition of tumour cell growth, NCI panel, 48 h
CAKI-1 = tested on: CAKI-1
NCI-H23 = tested on: NCI-H23
SNB-19 = tested on: SNB-19
A498 = tested on: A498
M14 = tested on: M14
HCC 2998 = tested on: HCC 2998
TK-10 = tested on: TK-10
HCT-116 = tested on: HCT-116
SF-268 = tested on: SF-268
HT-29 = tested on: HT-29
OVCAR-8 = tested on: OVCAR-8
RXF 393 = tested on: RXF 393
ACHN = tested on: ACHN
SK-MEL-2 = tested on: SK-MEL-2
CCRF-CEM = tested on: CCRF-CEM
IGROV-1 = tested on: IGROV-1
786-0 = tested on: 786-0
KM12 = tested on: KM12
RPMI-8226 = tested on: RPMI-8226
HOP-92 = tested on: HOP-92

Structure (SMILES)	GI50 (CAKI-1)	GI50 (NCI-H23)	GI50 (SNB-19)	GI50 (A498)	GI50 (M14)	GI50 (HCC 2998)	GI50 (TK-10)	GI50 (HCT-116)	GI50 (SF-268)	GI50 (HT-29)	GI50 (OVCAR-8)	GI50 (RXF 393)	GI50 (ACHN)	GI50 (SK-MEL-2)	GI50 (CCRF-CEM)	GI50 (IGROV-1)	GI50 (786-0)	GI50 (KM12)	GI50 (RPMI-8226)	GI50 (HOP-92)
CCCC(=O)Nc1cc(/C=C/C(=O)N2CC(CCl)c3ccc([N+](=O)[O-])cc32)n(C)c1 (stereo not drawn)	57.5 µM (inactive)	> 100 µM (inactive)	> 100 µM (inactive)	< 0.01 µM (active)	> 100 µM (inactive)	57.7 µM (inactive)	20 µM (inactive)	56 µM (inactive)	43.7 µM (inactive)	21.1 µM (inactive)	30.3 µM (inactive)	> 100 µM (inactive)	50.9 µM (inactive)	> 100 µM (inactive)	0.568 µM (active)	65 µM (inactive)	62.4 µM (inactive)	19.5 µM (inactive)	14.5 µM (inactive)	
O=C1C2=C(c3ccccc31)C(c1ccc([N+](=O)[O-])cc1)NC(S)=N2 (stereo not drawn)	> 100 µM (inactive)	38.5 µM (inactive)	97.3 µM (inactive)	> 100 µM (inactive)	91.2 µM (inactive)		> 100 µM (inactive)	38.5 µM (inactive)	42.2 µM (inactive)	> 100 µM (inactive)	> 10 µM (inactive)		70 µM (inactive)	96.8 µM (inactive)	38.7 µM (inactive)	50 µM (inactive)	> 100 µM (inactive)	87.7 µM (inactive)	30.2 µM (inactive)	51.1 µM (inactive)
Cc1ccc(S(=O)(=O)NC(=O)C2C(=O)CC3(CCCCC3)CC2=O)cc1	26.4 µM (inactive)	46 µM (inactive)	41.5 µM (inactive)	28.4 µM (inactive)	34.5 µM (inactive)		23.5 µM (inactive)	25.9 µM (inactive)	34.8 µM (inactive)	32.7 µM (inactive)	27.7 µM (inactive)	38.3 µM (inactive)	22.9 µM (inactive)		27.3 µM (inactive)	29.4 µM (inactive)	25.9 µM (inactive)	19.6 µM (inactive)	23.1 µM (inactive)	14.8 µM (inactive)
CCOC1CCC2C(CCC(/C=C/c3ccc(O)c4ncccc34)N2C)C1 (stereo not drawn)		10.3 µM (inactive)	16 µM (inactive)		15.4 µM (inactive)	24.2 µM (inactive)	33.2 µM (inactive)		6.24 µM (inactive)	7.03 µM (inactive)	3.53 µM (inactive)		32.7 µM (inactive)		4.65 µM (inactive)	11.4 µM (inactive)	6.44 µM (inactive)	17.4 µM (inactive)	25.4 µM (inactive)	11.7 µM (inactive)
O=C(O)C1OC(Oc2cc(O)c3c(=O)cc(-c4ccc(O)cc4)oc3c2)C(O)C(O)C1O (stereo not drawn)	> 100 µM (inactive)	> 100 µM (inactive)	> 100 µM (inactive)		> 100 µM (inactive)	> 100 µM (inactive)	> 100 µM (inactive)	> 100 µM (inactive)	> 100 µM (inactive)	> 100 µM (inactive)	> 100 µM (inactive)		> 100 µM (inactive)	> 100 µM (inactive)			77.3 µM (inactive)	> 100 µM (inactive)		< 0.01 µM (active)
Cc1csc2c(=O)n(C3OC(CO)C(O)C3O)c(=O)[nH]c12 (stereo not drawn)	> 100 µM (inactive)	> 100 µM (inactive)	> 100 µM (inactive)	> 100 µM (inactive)	> 100 µM (inactive)		39.5 µM (inactive)	> 100 µM (inactive)	> 100 µM (inactive)	> 100 µM (inactive)	> 100 µM (inactive)	> 100 µM (inactive)	> 100 µM (inactive)		> 100 µM (inactive)	> 100 µM (inactive)	> 100 µM (inactive)	> 100 µM (inactive)	> 100 µM (inactive)	> 100 µM (inactive)
